PubChem BioAssay (NCI)
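Exposure lasted 48 hours, with cells grown in 96-well plates and compounds tested at five concentrations. At the GI50, growth is halved. The concentration for full growth arrest is given as TGI.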

How the values were obtained:
Assay in all cases: NCI tumour cell line growth inhibition, 48 h; in the data active = GI50 below about 0.43 µM; inactive = the rest
786-0 renal = tested on: 786-0 renal
A498 renal = tested on: A498 renal
A549 NSCLC = tested on: A549 NSCLC
ACHN renal = tested on: ACHN renal
BT-549 breast = tested on: BT-549 breast
CAKI-1 renal = tested on: CAKI-1 renal
CCRF-CEM leukemia = tested on: CCRF-CEM leukemia
COLO 205 colon = tested on: COLO 205 colon
DU-145 prostate = tested on: DU-145 prostate
EKVX NSCLC = tested on: EKVX NSCLC
HCC-2998 colon = tested on: HCC-2998 colon
HCT-15 colon = tested on: HCT-15 colon
HL-60(TB) leukemia = tested on: HL-60(TB) leukemia
HOP-62 NSCLC = tested on: HOP-62 NSCLC
HS 578T breast = tested on: HS 578T breast
HT29 colon = tested on: HT29 colon
IGROV1 ovarian = tested on: IGROV1 ovarian
K-562 leukemia = tested on: K-562 leukemia
KM12 colon = tested on: KM12 colon
LOX IMVI melanoma = tested on: LOX IMVI melanoma
M14 melanoma = tested on: M14 melanoma
MALME-3M melanoma = tested on: MALME-3M melanoma
MCF7 breast = tested on: MCF7 breast
MDA-MB-231 breast = tested on: MDA-MB-231 breast
MDA-MB-435 = tested on: MDA-MB-435
MOLT-4 leukemia = tested on: MOLT-4 leukemia
NCI-H226 lung = tested on: NCI-H226 lung
NCI-H23 lung = tested on: NCI-H23 lung
NCI-H522 lung = tested on: NCI-H522 lung
NCI/ADR-RES ovarian = tested on: NCI/ADR-RES ovarian
OVCAR-3 ovarian = tested on: OVCAR-3 ovarian
OVCAR-5 ovarian = tested on: OVCAR-5 ovarian
RPMI-8226 leukemia = tested on: RPMI-8226 leukemia
RXF 393 renal = tested on: RXF 393 renal
SF-268 CNS = tested on: SF-268 CNS
SF-295 CNS = tested on: SF-295 CNS
SF-539 CNS = tested on: SF-539 CNS
SK-MEL-2 melanoma = tested on: SK-MEL-2 melanoma
SK-MEL-28 melanoma = tested on: SK-MEL-28 melanoma
SK-MEL-5 melanoma = tested on: SK-MEL-5 melanoma
SK-OV-3 ovarian = tested on: SK-OV-3 ovarian
SN12C renal = tested on: SN12C renal
SNB-19 CNS = tested on: SNB-19 CNS
SNB-75 CNS = tested on: SNB-75 CNS
SR leukemia = tested on: SR leukemia
SW-620 colon = tested on: SW-620 colon
T-47D breast = tested on: T-47D breast
U251 CNS = tested on: U251 CNS
UACC-257 melanoma = tested on: UACC-257 melanoma
UACC-62 melanoma = tested on: UACC-62 melanoma
UO-31 renal = tested on: UO-31 renal
HCT-116 colon = tested on: HCT-116 colon
NCI-H460 lung = tested on: NCI-H460 lung
OVCAR-4 ovarian = tested on: OVCAR-4 ovarian
OVCAR-8 ovarian = tested on: OVCAR-8 ovarian
PC-3 prostate = tested on: PC-3 prostate
TK-10 renal = tested on: TK-10 renal

Cc1nn(-c2ccc(Cl)cc2)c2nc3c(nc12)C(=O)c1ccccc1-3
65.6 µM: TGI (T-47D breast)
> 100 µM: TGI (786-0 renal) | TGI (A498 renal) | TGI (A549 NSCLC) | TGI (ACHN renal) | TGI (BT-549 breast) | TGI (CAKI-1 renal) | TGI (CCRF-CEM leukemia) | TGI (COLO 205 colon) | TGI (DU-145 prostate) | TGI (EKVX NSCLC) | TGI (HCC-2998 colon) | TGI (HCT-15 colon) | TGI (HL-60(TB) leukemia) | TGI (HOP-62 NSCLC) | TGI (HS 578T breast) | TGI (HT29 colon) | TGI (IGROV1 ovarian) | TGI (K-562 leukemia) | TGI (KM12 colon) | TGI (LOX IMVI melanoma) | TGI (M14 melanoma) | TGI (MALME-3M melanoma) | TGI (MCF7 breast) | TGI (MDA-MB-231 breast) | TGI (MDA-MB-435) | TGI (MOLT-4 leukemia) | TGI (NCI-H226 lung) | TGI (NCI-H23 lung) | TGI (NCI-H522 lung) | TGI (NCI/ADR-RES ovarian) | TGI (OVCAR-3 ovarian) | TGI (OVCAR-5 ovarian) | TGI (RPMI-8226 leukemia) | TGI (RXF 393 renal) | TGI (SF-268 CNS) | TGI (SF-295 CNS) | TGI (SF-539 CNS) | TGI (SK-MEL-2 melanoma) | TGI (SK-MEL-28 melanoma) | TGI (SK-MEL-5 melanoma) | TGI (SK-OV-3 ovarian) | TGI (SN12C renal) | TGI (SNB-19 CNS) | TGI (SR leukemia) | TGI (SW-620 colon) | TGI (U251 CNS) | TGI (UACC-257 melanoma) | TGI (UACC-62 melanoma) | TGI (UO-31 renal)
inactive: GI50 (786-0 renal) 75.3 µM | GI50 (A498 renal) 31.7 µM | GI50 (A549 NSCLC) > 100 µM | GI50 (ACHN renal) > 100 µM | GI50 (BT-549 breast) > 100 µM | GI50 (CAKI-1 renal) > 100 µM | GI50 (CCRF-CEM leukemia) > 100 µM | GI50 (COLO 205 colon) > 100 µM | GI50 (DU-145 prostate) > 100 µM | GI50 (EKVX NSCLC) > 100 µM | GI50 (HCC-2998 colon) > 100 µM | GI50 (HCT-15 colon) > 100 µM | GI50 (HL-60(TB) leukemia) > 100 µM | GI50 (HOP-62 NSCLC) 13.7 µM | GI50 (HS 578T breast) 15.7 µM | GI50 (HT29 colon) > 100 µM | GI50 (IGROV1 ovarian) > 100 µM | GI50 (K-562 leukemia) > 100 µM | GI50 (KM12 colon) > 100 µM | GI50 (LOX IMVI melanoma) > 100 µM | GI50 (M14 melanoma) > 100 µM | GI50 (MALME-3M melanoma) > 100 µM | GI50 (MCF7 breast) 51.9 µM | GI50 (MDA-MB-231 breast) 82.7 µM | GI50 (MDA-MB-435) > 100 µM | GI50 (MOLT-4 leukemia) > 100 µM | GI50 (NCI-H226 lung) 25.6 µM | GI50 (NCI-H23 lung) > 100 µM | GI50 (NCI-H522 lung) > 100 µM | GI50 (NCI/ADR-RES ovarian) > 100 µM | GI50 (OVCAR-3 ovarian) > 100 µM | GI50 (OVCAR-5 ovarian) > 100 µM | GI50 (RPMI-8226 leukemia) > 100 µM | GI50 (RXF 393 renal) > 100 µM | GI50 (SF-268 CNS) > 100 µM | GI50 (SF-295 CNS) > 100 µM | GI50 (SF-539 CNS) > 100 µM | GI50 (SK-MEL-2 melanoma) > 100 µM | GI50 (SK-MEL-28 melanoma) > 100 µM | GI50 (SK-MEL-5 melanoma) > 100 µM | GI50 (SK-OV-3 ovarian) 47.3 µM | GI50 (SN12C renal) > 100 µM | GI50 (SNB-19 CNS) > 100 µM | GI50 (SNB-75 CNS) 10.9 µM | GI50 (SR leukemia) > 100 µM | GI50 (SW-620 colon) > 100 µM | GI50 (T-47D breast) 17.4 µM | GI50 (U251 CNS) > 100 µM | GI50 (UACC-257 melanoma) > 100 µM | GI50 (UACC-62 melanoma) > 100 µM | GI50 (UO-31 renal) > 100 µM
46.3 µM: TGI (SNB-75 CNS)

COc1ccc(Nc2nnc(-c3cc(O)ccc3O)s2)cc1
22.8 µM: TGI (SW-620 colon)
20.6 µM: TGI (MOLT-4 leukemia)
19.1 µM: TGI (MDA-MB-435)
31.1 µM: TGI (MDA-MB-231 breast)
> 50 µM: TGI (786-0 renal) | TGI (A498 renal) | TGI (A549 NSCLC) | TGI (ACHN renal) | TGI (CAKI-1 renal) | TGI (COLO 205 colon) | TGI (DU-145 prostate) | TGI (EKVX NSCLC) | TGI (HCT-116 colon) | TGI (HCT-15 colon) | TGI (HL-60(TB) leukemia) | TGI (HS 578T breast) | TGI (HT29 colon) | TGI (IGROV1 ovarian) | TGI (K-562 leukemia) | TGI (KM12 colon) | TGI (LOX IMVI melanoma) | TGI (M14 melanoma) | TGI (NCI-H23 lung) | TGI (NCI-H460 lung) | TGI (NCI-H522 lung) | TGI (NCI/ADR-RES ovarian) | TGI (OVCAR-3 ovarian) | TGI (OVCAR-4 ovarian) | TGI (OVCAR-5 ovarian) | TGI (OVCAR-8 ovarian) | TGI (PC-3 prostate) | TGI (RXF 393 renal) | TGI (SF-268 CNS) | TGI (SF-295 CNS) | TGI (SK-MEL-2 melanoma) | TGI (SK-MEL-28 melanoma) | TGI (SNB-19 CNS) | TGI (SNB-75 CNS) | TGI (TK-10 renal) | TGI (U251 CNS) | TGI (UACC-257 melanoma) | TGI (UO-31 renal)
35.4 µM: TGI (MCF7 breast)
25.8 µM: TGI (SF-539 CNS)
39.9 µM: TGI (NCI-H226 lung)
43.6 µM: TGI (BT-549 breast)
inactive: GI50 (786-0 renal) > 50 µM | GI50 (A498 renal) > 50 µM | GI50 (A549 NSCLC) > 50 µM | GI50 (ACHN renal) > 50 µM | GI50 (BT-549 breast) 14.9 µM | GI50 (CAKI-1 renal) 34.2 µM | GI50 (COLO 205 colon) > 50 µM | GI50 (DU-145 prostate) > 50 µM | GI50 (EKVX NSCLC) > 50 µM | GI50 (HCT-116 colon) 21.9 µM | GI50 (HCT-15 colon) > 50 µM | GI50 (HL-60(TB) leukemia) 4.57 µM | GI50 (HS 578T breast) 19.7 µM | GI50 (HT29 colon) > 50 µM | GI50 (IGROV1 ovarian) 28.9 µM | GI50 (K-562 leukemia) 17.6 µM | GI50 (KM12 colon) 32.6 µM | GI50 (LOX IMVI melanoma) 25.7 µM | GI50 (M14 melanoma) > 50 µM | GI50 (MCF7 breast) 11.4 µM | GI50 (MDA-MB-231 breast) 9.65 µM | GI50 (MDA-MB-435) 9.22 µM | GI50 (MOLT-4 leukemia) 6.5 µM | GI50 (NCI-H226 lung) 11 µM | GI50 (NCI-H23 lung) > 50 µM | GI50 (NCI-H460 lung) 40.4 µM | GI50 (NCI-H522 lung) 16.1 µM | GI50 (NCI/ADR-RES ovarian) > 50 µM | GI50 (OVCAR-3 ovarian) > 50 µM | GI50 (OVCAR-4 ovarian) 11.7 µM | GI50 (OVCAR-5 ovarian) > 50 µM | GI50 (OVCAR-8 ovarian) 30.4 µM | GI50 (PC-3 prostate) 34.4 µM | GI50 (RPMI-8226 leukemia) 8.67 µM | GI50 (RXF 393 renal) 30.6 µM | GI50 (SF-268 CNS) 16.3 µM | GI50 (SF-295 CNS) > 50 µM | GI50 (SF-539 CNS) 12.6 µM | GI50 (SK-MEL-2 melanoma) 23.1 µM | GI50 (SK-MEL-28 melanoma) 27.1 µM | GI50 (SK-MEL-5 melanoma) 10.3 µM | GI50 (SN12C renal) 7.73 µM | GI50 (SNB-19 CNS) > 50 µM | GI50 (SNB-75 CNS) 9.45 µM | GI50 (SR leukemia) 1.41 µM | GI50 (SW-620 colon) 11.3 µM | GI50 (TK-10 renal) 48.4 µM | GI50 (U251 CNS) 16.7 µM | GI50 (UACC-257 melanoma) > 50 µM | GI50 (UACC-62 melanoma) 9.89 µM | GI50 (UO-31 renal) 47.3 µM
21.1 µM: TGI (RPMI-8226 leukemia)
27.2 µM: TGI (SK-MEL-5 melanoma)
34.2 µM: TGI (SR leukemia)
19.2 µM: TGI (SN12C renal)
20.8 µM: TGI (UACC-62 melanoma)
